Assay results: paper PMC7156458, “Synthetic biology based construction of biological activity-related library of fungal decalin-containing diterpenoid pyrones” (Nature Communications, 2020)

Biological target: Aβ42 (Homo sapiens, UniProt P05067)
Assay: Th-T (thioflavin-T) assay of Aβ42 aggregation
Assay type: biochemical
Details: for Th-T assay plate reading, mean of three wells (Supplementary Fig. 47): source data, Ab alone and No Ab as controls

Sequence of Aβ42 (P05067 672-713): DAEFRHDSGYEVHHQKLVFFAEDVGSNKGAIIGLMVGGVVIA

C=C1CCC2C(C)(CCC=C(C)C)C(O)CCC2(C)C1Cc1c(O)c(C)c(C)oc1=O (stereo not drawn) [Compound 4]
Th-T fluorescence, mean of three wells (Aβ42 aggregation time course, reading M117): 2.764
Th-T fluorescence, mean of three wells (Aβ42 aggregation time course, reading M118): 2.782
Th-T fluorescence, mean of three wells (Aβ42 aggregation time course, reading M119): 2.76
Th-T fluorescence, mean of three wells (Aβ42 aggregation time course, reading M120): 2.773
Th-T fluorescence, mean of three wells (Aβ42 aggregation time course, reading M121): 2.751
Th-T fluorescence, mean of three wells (Aβ42 aggregation time course, reading M122): 2.756
Th-T fluorescence, mean of three wells (Aβ42 aggregation time course, reading M123): 2.7381
Th-T fluorescence, mean of three wells (Aβ42 aggregation time course, reading M124): 2.734
Th-T fluorescence, mean of three wells (Aβ42 aggregation time course, reading M125): 2.771
Th-T fluorescence, mean of three wells (Aβ42 aggregation time course, reading M126): 2.764
Th-T fluorescence, mean of three wells (Aβ42 aggregation time course, reading M127): 2.744
Th-T fluorescence, mean of three wells (Aβ42 aggregation time course, reading M128): 2.737
Th-T fluorescence, mean of three wells (Aβ42 aggregation time course, reading M129): 2.759
Th-T fluorescence, mean of three wells (Aβ42 aggregation time course, reading M130): 2.729
Th-T fluorescence, mean of three wells (Aβ42 aggregation time course, reading M131): 2.75
Th-T fluorescence, mean of three wells (Aβ42 aggregation time course, reading M132): 2.778
Th-T fluorescence, mean of three wells (Aβ42 aggregation time course, reading M133): 2.76
Th-T fluorescence, mean of three wells (Aβ42 aggregation time course, reading M134): 2.744
Th-T fluorescence, mean of three wells (Aβ42 aggregation time course, reading M135): 2.723
Th-T fluorescence, mean of three wells (Aβ42 aggregation time course, reading M136): 2.752
Th-T fluorescence, mean of three wells (Supplementary Fig. 47, reading M137): 2.732
Th-T fluorescence, mean of three wells (Supplementary Fig. 47, reading M138): 2.752
Th-T fluorescence, mean of three wells (Supplementary Fig. 47, reading M139): 2.7362
Th-T fluorescence, mean of three wells (Supplementary Fig. 47, reading M140): 2.723
Th-T fluorescence, mean of three wells (Supplementary Fig. 47, reading M141): 2.765
Th-T fluorescence, mean of three wells (Supplementary Fig. 47, reading M142): 2.731
Th-T fluorescence, mean of three wells (Supplementary Fig. 47, reading M143): 2.798
Th-T fluorescence, mean of three wells (Supplementary Fig. 47, reading M144): 2.748
Th-T fluorescence, mean of three wells (Supplementary Fig. 47, reading M145): 2.777
Th-T assay plate reading, mean of three wells (Supplementary Fig. 47) (measurement M1): 0.3186
Th-T assay plate reading, mean of three wells (Supplementary Fig. 47) (measurement M2): 0.3159
Th-T assay plate reading, mean of three wells (Supplementary Fig. 47) (measurement M3): 0.3554
Th-T assay plate reading, mean of three wells (Supplementary Fig. 47) (measurement M4): 0.4086
Th-T assay plate reading, mean of three wells (Supplementary Fig. 47) (measurement M5): 0.4658
Th-T assay plate reading, mean of three wells (Supplementary Fig. 47) (measurement M6): 0.5438
Th-T assay plate reading, mean of three wells (Supplementary Fig. 47) (measurement M7): 0.6121
Th-T assay plate reading, mean of three wells (Supplementary Fig. 47) (measurement M8): 0.6677
Th-T assay plate reading, mean of three wells (Supplementary Fig. 47) (measurement M9): 0.6972
Th-T assay plate reading, mean of three wells (Supplementary Fig. 47) (measurement M10): 0.7395
Th-T assay plate reading, mean of three wells (Supplementary Fig. 47) (measurement M11): 0.7934
Th-T assay plate reading, mean of three wells (Supplementary Fig. 47) (measurement M12): 0.8591
Th-T assay plate reading, mean of three wells (Supplementary Fig. 47) (measurement M13): 0.9703
Th-T assay plate reading, mean of three wells (Supplementary Fig. 47) (measurement M14): 1.131
Th-T assay plate reading, mean of three wells (Supplementary Fig. 47) (measurement M15): 1.366
Th-T assay plate reading, mean of three wells (Supplementary Fig. 47) (measurement M16): 1.644
Th-T fluorescence, mean of three wells (reading M17, Supplementary Fig. 47 source data): 1.91
Th-T fluorescence, mean of three wells (time-course reading M97, Supplementary Fig. 47 source data): 2.7952
Th-T fluorescence, mean of three wells (time-course reading M98, Supplementary Fig. 47 source data): 2.787
Th-T fluorescence, mean of three wells (time-course reading M99, Supplementary Fig. 47 source data): 2.818
Th-T fluorescence, mean of three wells (time-course reading M100, Supplementary Fig. 47 source data): 2.783
Th-T fluorescence, mean of three wells (time-course reading M101, Supplementary Fig. 47 source data): 2.764
Th-T fluorescence, mean of three wells (time-course reading M102, Supplementary Fig. 47 source data): 2.765
Th-T fluorescence, mean of three wells (time-course reading M103, Supplementary Fig. 47 source data): 2.763
Th-T fluorescence, mean of three wells (time-course reading M104, Supplementary Fig. 47 source data): 2.782
Th-T fluorescence, mean of three wells (time-course reading M105, Supplementary Fig. 47 source data): 2.776
Th-T fluorescence, mean of three wells (time-course reading M106, Supplementary Fig. 47 source data): 2.782
Th-T fluorescence, mean of three wells (time-course reading M107, Supplementary Fig. 47 source data): 2.786
Th-T fluorescence, mean of three wells (time-course reading M108, Supplementary Fig. 47 source data): 2.803
Th-T fluorescence, mean of three wells (time-course reading M109, Supplementary Fig. 47 source data): 2.779
Th-T fluorescence, mean of three wells (time-course reading M110, Supplementary Fig. 47 source data): 2.789
Th-T fluorescence, mean of three wells (time-course reading M111, Supplementary Fig. 47 source data): 2.786
Th-T fluorescence, mean of three wells (time-course reading M112, Supplementary Fig. 47 source data): 2.79
Th-T fluorescence, mean of three wells (time-course reading M113, Supplementary Fig. 47 source data): 2.795
Th-T fluorescence, mean of three wells (time-course reading M114, Supplementary Fig. 47 source data): 2.781
Th-T fluorescence, mean of three wells (time-course reading M115, Supplementary Fig. 47 source data): 2.739
Th-T fluorescence, mean of three wells (time-course reading M116, Supplementary Fig. 47 source data): 2.771
